Source: US20230330069A1, “USE OF THIAZOLIDES AGAINST CORONAVIRUSES” (Romark Laboratories, L.C., priority 2020, published 2023)
Read-outs that look alike come from different tables or passages of the source.

Columns and labels:
[1] = Example 1 trial: adverse events / tolerability; format: in vivo, human; conditions: 600 mg orally twice daily
SARS-CoV-2 = format: in vivo
SARS-CoV-2 RNA = format: in vivo; conditions: for Mean (SD) Viral Load Change from Baseline / Percent Positive for SARS-CoV-2 RNA: nasopharyngeal swabs; for Percent Positive for SARS-CoV-2 RNA: 177 samples
[2] = in vivo
Source text: (§1) After randomization, eligible subjects underwent a physical examination, collection of nasopharyngeal swabs, and blood and urine samples for laboratory safety testing and assessment of SARS-CoV-2 antibody titers. Study drug was dispensed, and subjects were followed for 28 days. Subjects were instructed to complete electronic diaries recording oral temperature twice daily and symptom severity once daily in the evening for 21 days and were contacted daily by telephone by site staff on study days 2-7 and 28 to verify compliance and screen for progression to severe illness or other complications. Repeat nasopharyngeal swabs were collected on study days 4 and 10. Follow up blood and urine samples for laboratory safety testing and assessment of SARS-CoV-2 antibody titers were collected on study day 22. Subjects were allowed to use acetaminophen and/or dextromethorphan for symptom relief along with standard-of-care rescue medications. Adverse events were collected continuously throughout the study and monitored until the events resolved.
(§2) Efficacy analyses were based on a modified intention to treat (mITT) population of subjects testing positive for SARS-CoV-2 at baseline.

COVID-19 = conditions: 600 mg twice daily for seven days; hospitalized moderate to severe COVID-19; cited from earlier work
[3] = Example 5 trial: safety analyses (adverse events); conditions: one severe COVID-19, one aspiration (SARS-CoV-2 negative); not considered related to study medication
Source text: as §1, §2

[4] = 133 subjects with moderate illness at baseline
[5] = all SARS-CoV-2-positive subjects (mITT)
[6] = all SARS-CoV-2-positive subjects (mITT), 600 mg twice daily for 5 days
[7] = all SARS-CoV-2-positive subjects (mITT), listed as NTZ
[8] = all SARS-CoV-2-positive subjects (mITT), listed as nitazoxanide
[9] = subgroup 'May Be' or 'At Increased Risk' for severe COVID-19 per CDC (protocol-defined stratification factor)
[10] = subgroup At High Risk of progressing to severe COVID-19 and/or hospitalization (per EUA documents for monoclonal antibodies)
[11] = subgroup At Increased Risk for severe COVID-19 per CDC

Structure (SMILES): CC(=O)Oc1ccccc1C(=O)Nc1ncc([N+](=O)[O-])s1 [Nitazoxanide, 2-(acetolyloxy)-N-(5-nitro-2-thiazolyl) benzamide]
- adverse event: mild chromaturia, subjects ([1]; placebo 1.0%): 14.6%
- adverse event: diarrhea, subjects ([1]; placebo 4.9%): 6.6%
- subjects progressing to severe illness (SARS-CoV-2; 68 subjects with moderate illness at baseline in nitazoxanide arm, placebo two of 65): None and none
- TSR vs placebo (SARS-CoV-2; [4]): longer
- time to return to usual health vs placebo (SARS-CoV-2; [4]): longer
- relative reduction in rate of hospitalization, emergency room visit or death vs placebo (SARS-CoV-2; [5]): 82%
- relative reduction of progression to severe COVID-19 vs placebo (SARS-CoV-2; [5]): 85%
- subjects experiencing hospitalization, emergency room visit or death (%) (SARS-CoV-2; [5]): 0.5%
- subjects experiencing hospitalization, emergency room visit or death (n/N) (SARS-CoV-2; [5]): 1/184
- subjects progressing to severe COVID-19 (%) (SARS-CoV-2; [6]): 0.5%
- subjects progressing to severe COVID-19 (n/N) (SARS-CoV-2; [6]): 1/184
- subjects progressing to severe COVID-19 (%) (SARS-CoV-2; all SARS-CoV-2-positive subjects (mITT), 600 mg twice daily for 5 days, listed as NTZ): (0.5%)
- subjects progressing to severe COVID-19 (%) (SARS-CoV-2; all SARS-CoV-2-positive subjects (mITT), 600 mg twice daily for 5 days, listed as nitazoxanide): 0.5%
- relative reduction in rate of hospitalization, emergency room visit or death vs placebo (SARS-CoV-2; [7]): 82%
- relative reduction of progression to severe COVID-19 vs placebo (SARS-CoV-2; [7]): 85%
- subjects experiencing hospitalization, emergency room visit or death (%) (SARS-CoV-2; [7]): (0.5%)
- relative reduction in rate of hospitalization, emergency room visit or death vs placebo (SARS-CoV-2; [8]): 82%
- relative reduction of progression to severe COVID-19 vs placebo (SARS-CoV-2; [8]): 85%
- Median (IQR) time from first dose to sustained response (TSR) (SARS-CoV-2; all mITT subjects, placebo 12.35 (7.18->21), p=0.88): 13.28 (6.26->21) days
- relative reduction in rate of hospitalization, emergency room visit or death vs placebo (SARS-CoV-2; [9]): 81%
- relative reduction of progression to severe COVID-19 vs placebo (SARS-CoV-2; [9]): 84%
- subjects experiencing hospitalization, emergency room visit or death (%) (SARS-CoV-2; [9]): (0.9%)
- subjects experiencing hospitalization, emergency room visit or death (n/N) (SARS-CoV-2; [9]): 1/112
- subjects progressing to severe COVID-19 (%) (SARS-CoV-2; [9]): (0.9%)
- subjects progressing to severe COVID-19 (n/N) (SARS-CoV-2; [9]): 1/112
- relative reduction in rate of hospitalization, emergency room visit or death vs placebo (SARS-CoV-2; [10]): 77%
- relative reduction of progression to severe COVID-19 vs placebo (SARS-CoV-2; [10]): 81%
- subjects experiencing hospitalization, emergency room visit or death (%) (SARS-CoV-2; [10]): (1.7%)
- subjects experiencing hospitalization, emergency room visit or death (n/N) (SARS-CoV-2; [10]): 1/60
- subjects progressing to severe COVID-19 (%) (SARS-CoV-2; [10]): (1.7%)
- subjects progressing to severe COVID-19 (n/N) (SARS-CoV-2; [10]): 1/60
- relative reduction in rate of hospitalization, emergency room visit or death vs placebo (SARS-CoV-2; [11]): 81%
- relative reduction of progression to severe COVID-19 vs placebo (SARS-CoV-2; [11]): 83%
- subjects experiencing hospitalization, emergency room visit or death (%) (SARS-CoV-2; [11]): (1.0%)
- subjects experiencing hospitalization, emergency room visit or death (n/N) (SARS-CoV-2; [11]): 1/104
- subjects progressing to severe COVID-19 (%) (SARS-CoV-2; [11]): (1.0%)
- subjects progressing to severe COVID-19 (n/N) (SARS-CoV-2; [11]): 1/104
- median TSR (SARS-CoV-2; subjects with mild illness at baseline, n=116, placebo 13.4): 10.3 days
- reduction of median time to return to usual health vs placebo (SARS-CoV-2; subjects with mild illness at baseline, p=0.0075): 5.2 days
- reduction of median TSR (time to sustained clinical recovery) vs placebo (SARS-CoV-2; subjects with mild illness at baseline, p=0.0932): 3.1 days
- median time from first dose until subjects reported returning to usual health (SARS-CoV-2; subjects with mild illness at baseline, placebo 18.4): 13.2 days
- Mean (SD) Viral Load Change from Baseline (SARS-CoV-2 RNA; Day 4): −0.70 (1.573) log10 copies/mL
- Percent Positive for SARS-CoV-2 RNA (SARS-CoV-2 RNA; Day 4): 94%
- Mean (SD) Viral Load Change from Baseline (SARS-CoV-2 RNA; Day 10): −2.49 (1.582) log10 copies/mL
- Percent Positive for SARS-CoV-2 RNA (SARS-CoV-2 RNA; Day 10): 73%
- Viral Load Day 4 (SARS-CoV-2 RNA; single NTZ-treated subject who progressed to severe COVID-19, Day 1 value 7.39): 7.39/4.79 log10 RNA copies/mL
- subjects reporting at least one adverse event (%) ([2]; human): 13.3%
- subjects reporting diarrhea (%) ([2]; human): 3.4%
- subjects reporting at least one adverse event (number) [2]: Sixty-three
- subjects reporting serious adverse events [2]: Two
- subjects who discontinued study medication due to adverse events [2]: Two
- safety and tolerability ([2]; po): safe and well tolerated
- duration of supplemental oxygen vs placebo (COVID-19): reductions
- rate of mechanical ventilation vs placebo (COVID-19): reductions
- rate of mortality vs placebo (COVID-19): reductions
- time to hospital discharge vs placebo (COVID-19): reductions
- subjects who died during the study [3]: Two
